In EPA's ToxValDB 9.5 (doi:10.2903/j.efsa.2014.3742):
≈ marks a conversion by molar mass, not a printed value.

Tests used:
Folsomia candida = details: chronic/long-term
Tagia sp. = details: for LC50: acute
Oncorhynchus mykiss = details: for LC50: acute, duration: 96 hours, mortality; for NOEC: chronic/long-term
Apis mellifera = details: acute, mortality
Daphnia magna = details: chronic/long-term; duration: 21 days
Colinus virginianus = details: acute; oral; mortality
Oryctolagus sp. = details: reproduction developmental; morphology

Structure (SMILES) | NOEC (Folsomia candida) [mg/kg] | LC50 (Tagia sp.) [mg/kg] | NOEC (Tagia sp.; chronic/long-term) [mg/kg] | LC50 (Oncorhynchus mykiss) [µg/mL] | NOEC (Oncorhynchus mykiss; duration: 28 days, other) [mg/L] | LD50 (Apis mellifera; dermal) [µg/piece] | LD50 (Apis mellifera; oral, unspecified) [µg/piece] | NOEC (Daphnia magna) [mg/L] | LD50 (Colinus virginianus) [mg/kg] | LC50 (Rattus norvegicus; acute, mortality) [mg/kg] | NOAEL (Rattus norvegicus; reproduction developmental) [mg/kg-day] | NOAEL (Rattus norvegicus; reproduction developmental, morphology) [mg/kg-day] | NOAEL (Rattus norvegicus; subchronic, duration: 90 days, oral, histopathology: neoplastic) [mg/kg-day] | LC50 (Tagia sp.; duration: 14 days, mortality) [mg/kg] | NOAEL (Oryctolagus sp.) [mg/kg-day] | NOEC (Oncorhynchus mykiss; duration: 21 days) [mg/L] | NOEC (Anas platyrhynchos; reproductive, duration: 15 months, morphology) [mg/kg-day] | LC50 (Anas platyrhynchos; short-term, duration: 5 days, oral, feed, mortality) [mg/kg]
c1nc[nH]n1 [1H-1,2,4-Triazole] | 1.8 | > 1000 | ≤ 1 | 498 (≈ 7.21 mM) | 3.2 | – | – | – | – | – | – | – | – | – | – | – | – | –
Nc1ncn[nH]1 [Amitrole] | – | – | – | > 1000 | – | > 100 | > 152 | 0.32 | > 2150 | 5000 | 0.9 | 0.12 | 0.1 | > 448 | 3 | 100 | 16 | > 829
